From PMC9292215 (Clinical Pharmacology and Therapeutics, 2021)

Test: Plasma pharmacokinetics of BIA 10-2474 and metabolites
Format: in vivo, human
Settings: for Cmax / Tmax / AUC(0-inf) / AUC(0-t) / clearance / half-life / concentration at 10 day / AUC: human, plasma, oral; for AUC(0-t): AUC0–t; for clearance: CL; for AUC: AUC0–τ
[1] = both, 0.25 mg, single dose 0.25 mg
[2] = both, 1.25 mg, single dose 1.25 mg
[3] = both, 2.5 mg, single dose 2.5 mg
[4] = both, 100 mg, single dose 100 mg
[5] = 2.5 mg, 2.5 mg once daily, Day 1
[6] = 2.5 mg, 2.5 mg once daily, Day 10

CN(C(=O)n1cnc(-c2ccc[n+]([O-])c2)c1)C1CCCCC1 [BIA 10-2474, 3-(1-(cyclohexyl(methyl)carbamoyl)-1H-imidazol-4-yl)pyridine 1-oxide]
V/F (2.5 mg once daily, Day 1): 56.1 (18.7) L
Racc (2.5 mg once daily, Day 10): 1.15
V/F (2.5 mg once daily, Day 10): 57.0 (26.0) L
V/F (5 mg once daily, Day 1): 63.2 (20.4) L
Racc (5 mg once daily, Day 10): 1.31
V/F (5 mg once daily, Day 10): 65.3 (17.4) L
V/F (10 mg once daily, Day 1): 69.0 (22.8) L
Racc (10 mg once daily, Day 10): 1.59
V/F (10 mg once daily, Day 10): 61.4 (17.9) L
V/F (20 mg once daily, Day 1): 66.3 (7.34) L
Racc (20 mg once daily, Day 10): 1.57
V/F (20 mg once daily, Day 10): 64.1 (15.4) L
V/F (50 mg once daily, Day 1): 67.9 (9.78) L
accumulation ratio, based on AUC0–24h (Day 10): < 2
Overall fold increase in AUC0–τ (MAD Day 1): 19.6
Overall fold increase in Cmax (MAD Day 1): 14.5
Fold increase in AUC0–τ (MAD Day 1, 2.5 to 5 mg): 1.8
Fold increase in Cmax (MAD Day 1, 2.5 to 5 mg): 1.7
Fold increase in AUC0–τ (MAD Day 1, 5 to 10 mg): 2.0
Fold increase in Cmax (MAD Day 1, 5 to 10 mg): 1.9
Fold increase in AUC0–τ (MAD Day 1, 10 to 20 mg): 2.1
Fold increase in Cmax (MAD Day 1, 10 to 20 mg): 2.0
Fold increase in AUC0–τ (MAD Day 1, 20 to 50 mg): 2.6
Fold increase in Cmax (MAD Day 1, 20 to 50 mg): 2.3
Overall fold increase in AUC0–τ (MAD Day 10): 8.84
Overall fold increase in Cmax (MAD Day 10): 7.53
Fold increase in AUC0–τ (MAD Day 10, 2.5 to 5 mg): 1.7
Fold increase in Cmax (MAD Day 10, 2.5 to 5 mg): 1.6
Fold increase in AUC0–τ (MAD Day 10, 5 to 10 mg): 2.4
Fold increase in Cmax (MAD Day 10, 5 to 10 mg): 2.2
Fold increase in AUC0–τ (MAD Day 10, 10 to 20 mg): 2.1
Fold increase in Cmax (MAD Day 10, 10 to 20 mg): 2.1
Fold increase in Cmax (SAD, 1.25 to 2.5 mg): 1.9
Fold increase in AUC0–t (SAD, 2.5 to 5 mg): 2.4
Fold increase in Cmax (SAD, 2.5 to 5 mg): 2.7
Fold increase in AUC0–t (SAD, 5 to 10 mg): 2.1
Fold increase in Cmax (SAD, 5 to 10 mg): 1.7
Fold increase in AUC0–t (SAD, 10 to 20 mg): 2.8
Fold increase in Cmax (SAD, 10 to 20 mg): 2.1
Fold increase in AUC0–t (SAD, 20 to 40 mg): 2.2
Fold increase in Cmax (SAD, 20 to 40 mg): 2.6
Fold increase in AUC0–t (SAD, 40 to 100 mg): 2.6
Fold increase in Cmax (SAD, 40 to 100 mg): 2.2
Overall fold increase in AUC0–t (SAD, over the dosage range): 19.6
Cmax [1]: 3.1 ng/mL
Tmax [1]: 2 h
AUC(0-inf) (both, 1.25 mg): 142 ng·h/mL
AUC(0-t) [2]: 98 ng·h/mL
clearance [2]: 155 mL/min
Cmax [2]: 16.2 ng/mL
half-life (both, 1.25 mg, t1/2, single dose 1.25 mg): 6.54 h
Tmax [2]: 1.5 h
AUC(0-inf) (both, 2.5 mg): 338 ng·h/mL
AUC(0-t) [3]: 289 ng·h/mL
clearance [3]: 131 mL/min
Cmax [3]: 31.2 ng/mL
half-life (both, 2.5 mg, t1/2, single dose 2.5 mg): 7.04 h
Tmax [3]: 1.5 h
AUC(0-t) (both, 5 mg, single dose 5 mg): 693 ng·h/mL
Cmax (both, 5 mg, single dose 5 mg): 85.4 ng/mL
Tmax (both, 5 mg, single dose 5 mg): 2 h
clearance (both, 40 mg, single dose 40 mg): 116 mL/min
half-life (both, 40 mg, t1/2, single dose 40 mg): 7.84 h
Tmax (both, 40 mg, single dose 40 mg): 2 h
AUC(0-inf) (both, 100 mg): 23200 ng·h/mL
AUC(0-t) [4]: 23000 ng·h/mL
clearance [4]: 75.2 mL/min
Cmax [4]: 1770 ng/mL
half-life (both, 100 mg, t1/2, single dose 100 mg): 9.13 h
Tmax [4]: 2 h
half-life (both, drug half-life in plasma): 6 to 10 h
half-life (both, mean terminal elimination half-life, Day 10): 8 to 10 h
concentration at 10 day (2.5 mg): 6.24 ng/mL
AUC(0-t) [5]: 384 ng·h/mL
AUC [5]: 397 ng·h/mL
AUC [6]: 526 ng·h/mL
clearance [5]: 98.3 mL/min
clearance [6]: 81.5 mL/min
Cmax [5]: 46 ng/mL
Cmax [6]: 52.6 ng/mL
half-life (2.5 mg, t1/2, 2.5 mg once daily, Day 1): 6.73 h
half-life (2.5 mg, t1/2, 2.5 mg once daily, Day 10): 8.04 h
Tmax [5]: 2 h
Tmax [6]: 2 h
AUC(0-inf) (5 mg): 752 ng·h/mL
concentration at 10 day (5 mg): 10.8 ng/mL
AUC(0-t) (5 mg, 5 mg once daily, Day 1): 695 ng·h/mL
AUC (5 mg, 5 mg once daily, Day 1): 708 ng·h/mL
AUC (5 mg, 5 mg once daily, Day 10): 909 ng·h/mL
clearance (5 mg, 5 mg once daily, Day 1): 125 mL/min
clearance (5 mg, 5 mg once daily, Day 10): 101 mL/min
clearance (5 mg, single dose 5 mg): 114 mL/min
